What was measured:
[1] = tested on: mitochondrial permeability transition (MPT); assay: Mitochondrial permeability transition: Ca2+-induced swelling of rat liver mitochondria; format: biochemical; conditions: swelling induced by 150 micromolar Ca2+, compound added 5 minutes before, read-out: EC50 (inhibition of mitochondrial swelling)
Description: Mitochondrial permeability transition (MPT) was determined by measuring swelling of the mitochondria induced by Ca^2+. The procedure was adapted from the method described by Blattner et al, Analytical Biochem, Volume 295, page 220 (2001). Mitochondria were prepared from rat livers, which had been perfused with phosphate-buffered saline (PBS) to remove blood, using standard methods that utilized gentle homogenization in sucrose based buffer and then differential centrifugation to first remove cellular debris and then to pellet the mitochondria. Swelling was induced by 150 micromolar Ca^2+ (added from a concentrated solution of calcium chloride) and was monitored by measuring the scattering at 535-540 nm. Representative compounds were added 5 minutes before swelling was induced. EC50 were determined by comparing swelling with and without the compounds of the invention.

[2] = tested on: Jurkat cells; assay: Cytotoxicity in parallel Alamar Blue plates (Jurkat cells); format: cell-based
Description: (§1) Compounds of the invention were tested for their T Cell stimulation (IL-2) in Jurkat cells with anti-CD3 and anti-CD28 co-stimulation. […] Cyclosporine A (control) was also run at a 0.5-Log 9-point titration, starting at 500 ng/mL. All compounds to be tested were dissolved in dimethyl sulfoxide. Cytotoxicity was evaluated with parallel Alamar Blue plates. Jurkat cells were seeded at 2×10^5 cells per well in 190 μL growth media in a 96-well plate, Cells were cultured in RPMI 1640 medium, 10% fetal bovine serum, and L-Glutamine with incubation at 37° C. with 5% carbon dioxide. After 1 hour of incubation the cells were stimulated with immobilized anti-CD3 (0.4m/well), anti-CD28 soluble (2 μg/mL). After 6 hours the sample supernatants were harvested and stored at −80° C. 50 μL samples of supernatant were tested for IL-2 using a Luminex® 1-plex assay.

[3] = tested on: IL-2 in Jurkat cells; assay: T cell stimulation (IL-2) in Jurkat cells with anti-CD3 and anti-CD28 co-stimulation; format: cell-based; conditions: 6 hours, Luminex 1-plex
Description: as §1

[4] = target: cyclophilin D (Homo sapiens, UniProt P30405); assay: Cyclophilin binding competitive ELISA, cyclophilin D; conditions: human recombinant cyclophilin
cyclophilin D, sequence (P30405 30-207): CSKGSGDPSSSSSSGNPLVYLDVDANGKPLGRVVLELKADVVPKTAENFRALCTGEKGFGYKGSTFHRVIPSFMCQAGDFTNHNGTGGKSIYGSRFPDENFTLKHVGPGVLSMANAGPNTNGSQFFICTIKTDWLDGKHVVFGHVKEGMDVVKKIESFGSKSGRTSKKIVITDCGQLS
Description: (§2) The cyclophilin inhibition binding of compounds of the invention was determined using a competitive ELISA adapted from the methods described by Quesniaux et al. (Eur. J Immunol. 1987, Vol. 17, pages 1359-1365). Activated ester of succinyl spacers bound to D-Lys^8-cylosporine A (D-Lys^8-Cs) was coupled to bovine serum albumin (BSA) through D-lysyl residue in position 8. BSA was dissolved in 0.1 M borate buffer, pH 9.0 (4 mg in 1.4 ml). A hundredfold molar excess of D-Lys^8-Cs dissolved in dimethyl formamide (0.6 ml) was added dropwise to the BSA under vigorous stirring. […] After acetone precipitation of an aliquot of the conjugated protein, no covalently bound D-Lys^8-Cs remained in the acetone solution and the extent of cyclosporine covalent binding was calculated.
(§3) Microtiter Plates were coated with D-Lys^8-Cs-BSA conjugate ([…] in PBS for 24 hours at 4° C.). […] Cyclophilin was detected with anti-cyclophilin rabbit antiserum diluted in 1% BSA containing PBS and incubated overnight at 4° C. […] Bound rabbit antibodies were then detected by goat anti-rabbit IgG conjugated to alkaline phosphatase diluted in 1% BSA-PBS and allowed to incubate for 2 hours at 37° C. […] After incubation with 4-nitrophenyl phosphate (1 g/1 in diethanolamine buffer, pH 9.8) for 1 to 2 hours at 37° C., the enzymatic reaction was measured spectrophotometrically at 405 nm using a spectrophotometer.

[5] = target: cyclophilin A (Homo sapiens, UniProt P62937); assay: Cyclophilin binding competitive ELISA, cyclophilin A; conditions: human recombinant cyclophilin
cyclophilin A, sequence (P62937 whole entry): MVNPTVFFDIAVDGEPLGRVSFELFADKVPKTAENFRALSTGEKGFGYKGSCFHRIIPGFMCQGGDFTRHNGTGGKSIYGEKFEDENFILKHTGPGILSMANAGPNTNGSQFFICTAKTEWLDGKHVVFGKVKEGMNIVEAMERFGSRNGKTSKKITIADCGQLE
Description: as §2, §3

[6] = tested on: HCV RNA replicon ET (luc ubi neo/ET); conditions: read-out: EC50 (effective concentration that reduced viral replication by 50%); HCV replicon ET line, LUC reporter, 72 hours
From the text: Compounds were examined in the human hepatoma cell line ET (lub ubi neo/ET), a HCV RNA replicon containing a stable luciferase (LUC) reporter. The HCV RNA replicon ET contains the 5′ end of HCV (with the HCV Internal Ribosome Entry Site (IRES) and the first few amino acids of the HCV core protein) which drives the production of a firefly luciferase (LUC), ubiquitin, and neomycin phosphotransferase (NeoR) fusion protein. Ubiquitin cleavage releases the LUC and NeoR proteins. The EMCV IRES element controls the translation of the HCV […] proteins NS3-NS5. […] At the 3′ end of the replicon is the authentic 3′ NTR of HCV. The activity of the LUC reporter is directly proportional to HCV replication levels and positive-control antiviral compounds produce a reproducible antiviral response using the LUC endpoint.
The activity of the LUC reporter is directly proportional to HCV RNA levels in the human cell line.

[7] = target: cyclophilin B (Homo sapiens, UniProt P23284); assay: Cyclophilin binding competitive ELISA, cyclophilin B; conditions: human recombinant cyclophilin
cyclophilin B, sequence (P23284 34-216): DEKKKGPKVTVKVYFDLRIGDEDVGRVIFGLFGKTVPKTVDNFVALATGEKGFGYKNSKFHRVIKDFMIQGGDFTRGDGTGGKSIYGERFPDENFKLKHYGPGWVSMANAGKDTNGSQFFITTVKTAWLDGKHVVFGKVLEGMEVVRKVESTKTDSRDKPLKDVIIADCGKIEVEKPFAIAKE
Description: as §2, §3

## C/C=C/C[C@@H](C)[C@@H](O)[C@H]1C(=O)N[C@@H](CC)C(=O)N(C)CC(=O)N(C)[C@@H](CC(C)(C)OCc2ccccc2)C(=O)N[C@@H](C(C)C)C(=O)N(C)[C@@H](CC(C)C)C(=O)N[C@@H](C)C(=O)N[C@H](C)C(=O)N(C)[C@@H](CC(C)C)C(=O)N(C)[C@@H](CC(C)C)C(=O)N(C)[C@@H](C(C)C)C(=O)N1C [Compound A, [4′-Benzyloxy-N-methylleucine]^4cyclosporine A]
[1]
  EC50: < 10000 nM
[2]
  Cytotoxicity: absence of cytotoxicity
[3]
  IL-2 activity EC50: 0.043 µg/mL
[4]
  cyclophilin D binding value: 124 ng/mL
[5]
  cyclophilin A binding value: ≤ 98 ng/mL
[6]
  EC50: 410 nM
[7]
  cyclophilin B binding value: 102 ng/mL

Source: patent US20120010131A1, “NOVEL CYCLOSPORIN ANALOGUES” (Scynexis, Inc., priority 2009, published 2012)
